# Measured values published in patent US9248162B2, “Factor H for treatment of rheumatoid arthritis” (Baxter International Inc., priority 2013, dated 2016).
# “And” between values parts separate entries of the source, which are not always exact repeats. Equal entries are not always repeated.
# Key:
# Type in all cases: in vivo, Balb C mice
# [1] = test system: collagen antibody-induced arthritis; experiment: Mouse CAIA: ankle histology scores (H & E); set-up: key to Score From H & E: Inflammation: 0: normal; 1: minimal infiltration of inflammatory cells in periarticular tissue; 2: mild infiltration; 3: moderate infiltration with moderate edema; 4: marked infiltration with marked edema; 5: severe infiltration with severe edema; key to Exostosis, Summary (significance) / Composite, Summary (significance) / Pannus, Summary (significance) / Cartilage, Summary (significance) / Inflammation, Summary (significance): ns: = not significant; *: = P < 0.05; **: = P < 0.01; ***: = P < 0.001; Composite Biohistopathology Score, group value / Composite Biohistopathology Score: scale not given here
# Experimental: (§1) Balb C mice (n=10 per cohort) were used to determine the efficacy of Factor H (FH) during […]. The mice were treated with ArthritoMAb (anti-collagen) antibody cocktail (2 mg, i.v.) on day 1, followed 7 days later with an injection of LPS (50 μg, i.p.). On day 8, hind paw volumes were measured for each animal and distributed to various treatment groups.
# (§2) Dosing with the different agents was started on day 8 as described in Table 3.
# (§3) Hind paw volumes were measured on day 8, 11, 12, 13, 15, 19 and 22 (endpoint). The age at start date was 7 to 9 weeks. Body weights were measured bi-weekly to the endpoint (Table 4). At the endpoint, tissue samples were processed for histology and submitted to a pathologist for independent analysis. Sampling 1 was performed at the endpoint. The hind limbs were preserved in 10% formalin. Sampling 2 was performed at the endpoint for group 4 animals. Blood was collected by terminal cardiac puncture. The blood was processed for anti-coagulant. The kidneys were additionally preserved in formalin and followed with 70% EtOH. Samples were scored for inflammation, pannus (granulation tissue), cartilage damage, bone resorption and exostosis (Table 5).
# [2] = test system: collagen antibody-induced arthritis; experiment: Mouse CAIA: ankle histology scores (H & E); set-up: key: 0: normal; 1: minimal infiltration of pannus in cartilage and subchondral bone; 2: mild infiltration; 3: moderate infiltration; 4: marked infiltration; 5: severe infiltration; conditions: individual animal, score 0-5, endpoint day 22, listed as Group 3
# Experimental: as §1, §2, §3
# [3] = test system: collagen antibody-induced arthritis; experiment: Mouse CAIA: clinical score; set-up: key to Clinical Score, Summary (significance): ns: = not significant; *: = P < 0.05; **: = P < 0.01; ***: = P < 0.001
# Experimental: The mice were treated with ArthritoMAb (anti-collagen) antibody cocktail (2 mg, i.v.) on day 1, followed 7 days later with an injection of LPS (50 μg, i.p.). On day 8, hind paw volumes were measured for each animal and distributed to various treatment groups.
# Factor H was formulated in 20 mM Citrate, 150 mM NaCl, pH=6. […] Ethanercept was formulated as Enbrel™ in saline. Vehicle was formulated in 20 mM Citrate, 150 mM NaCl, pH=6. […] The dosing volume for Factor H and BX12 was 25 mL/kg (0.500 mL/20 g mouse) and adjusted accordingly for body weight.
# as §2
# [4] = test system: collagen antibody-induced arthritis; experiment: Mouse CAIA: ankle histology scores (H & E); set-up: key: 0: normal; 1: minimal to mild loss of staining density with no obvious chondrocyte loss or collagen disruption; 2: mild loss of staining density with focal mild (superficial) chondrocyte loss and/or collagen disruption; 3: moderate loss of staining density with multifocal moderate (depth to middle zone) chondrocyte loss and/or collagen disruption; 4: marked loss of staining density with multifocal marked (depth to deep zone) chondrocyte loss and/or collagen disruption; 5: severe diffuse loss of staining density with multifocal severe (depth to tide mark) chondrocyte loss and/or collagen disruption; conditions: individual animal, score 0-5, endpoint day 22, listed as Group 3
# Experimental: as §1, §2, §3
# [5] = test system: collagen antibody-induced arthritis; experiment: Mouse CAIA: ankle histology scores (H & E); set-up: key: 0: normal; 1: minimal; 2: mild; 3: moderate; 4: marked; 5: severe; conditions: individual animal, score 0-5, endpoint day 22, listed as Group 3
# Experimental: as §1, §2, §3
# [6] = Mouse CAIA: body weight and tolerability; conditions: mouse, in vivo
# Experimental: as §1, §2, §3
# [7] = test system: collagen antibody-induced arthritis; experiment: Mouse CAIA: ankle histology scores (H & E); set-up: key: 0: normal; 1: minimal infiltration of inflammatory cells in periarticular tissue; 2: mild infiltration; 3: moderate infiltration with moderate edema; 4: marked infiltration with marked edema; 5: severe infiltration with severe edema; conditions: individual animal, score 0-5, endpoint day 22, listed as Group 3
# Experimental: as §1, §2, §3
# [8] = Vehicle vs agent, Dunn's Multiple Comparison Test
# [9] = ankle, group mean ± spread, 10 animals, score 0-5
# [10] = histopathology score, graded 1-5, hind limbs at endpoint, group value
substance,measurement,setting,value
Etanercept,"Cartilage, Difference in rank sum",[1]; [8],−1.5
same,"Cartilage, Summary (significance)",[1]; [8],ns
same,"Composite, Difference in rank sum",[1]; [8],2.1
same,"Composite, Summary (significance)",[1]; [8],ns
same,"Exostosis, Difference in rank sum",[1]; [8],5.8
same,"Exostosis, Summary (significance)",[1]; [8],ns
same,"Inflammation, Difference in rank sum",[1]; [8],3.6
same,"Inflammation, Summary (significance)",[1]; [8],ns
same,"Pannus, Difference in rank sum",[1]; [8],0.3
same,"Pannus, Summary (significance)",[1]; [8],ns
same,"Composite Biohistopathology Score, group value","[1]; ankle, group mean ± spread, 10 animals",6.0 ± 2.1
same,"Score From H & E: Bone Resorption, group value",[1]; [9],1.0 ± 0.4
same,"Score From H & E: Cartilage Damage, group value",[1]; [9],0.7 ± 0.3
same,"Score From H & E: Inflammation, group value",[1]; [9],1.5 ± 0.5
same,"Score From H & E: Pannus, group value",[1]; [9],1.4 ± 0.5
same,"Score From H & E: Periosteal/Exostotic Changes, group value",[1]; [9],1.4 ± 0.6
same,Composite Biohistopathology Score,"[1]; ankle, individual animal, endpoint day 22, listed as Group 3",11 (2×) and 0 (4×) and 16 and 15 and 1 and 4
same,Score From H & E: Inflammation,"[1]; ankle, individual animal, score 0-5, endpoint day 22, listed as Group 3",3 (4×) and 0 (4×) and 1 and 2
same,Composite Score,"[1]; histopathology composite, hind limbs at endpoint, group value",6.0 ± 2.1^ns
same,Bone Resorption,[1]; [10],1.0 ± 0.4^ns
same,Cartilage Damage,[1]; [10],0.7 ± 0.3^ns
same,Exostosis,[1]; [10],1.4 ± 0.6^ns
same,Inflammation,[1]; [10],1.5 ± 0.5^ns
same,Pannus,[1]; [10],1.4 ± 0.5^ns
same,Score From H & E: Pannus,[2],4
same,"Clinical Score, Difference in rank sum",[3]; [8],3.55
same,"Clinical Score, Summary (significance)",[3]; [8],ns
same,"Max Clin Score, Mean","[3]; group mean, n=10",39.60
same,"Clinical Score, Day of Study 8, Mean","[3]; group mean, n=10, day 8 (start of dosing)",5.50
same,"Clinical Score, Day of Study 11, Mean","[3]; group mean, n=10, day 11",19.60
same,"Clinical Score, Day of Study 12, Mean","[3]; group mean, n=10, day 12",37.10
same,"Clinical Score, Day of Study 13, Mean","[3]; group mean, n=10, day 13",35.50
same,"Clinical Score, Day of Study 16, Mean","[3]; group mean, n=10, day 16 (Jul. 1, 2011)",31.50
same,"Clinical Score, Day of Study 19, Mean","[3]; group mean, n=10, day 19",28.40
same,"Clinical Score, Day of Study 22, Mean","[3]; group mean, n=10, day 22 (endpoint)",25.70
same,Day (of Max Clin Score),"[3]; individual animal, day of study",12 (8×) and 22 and 16
same,Max Clin Score,"[3]; individual animal, maximum over days 8 to 22",32 and 50 (2×) and 45 and 46 and 35 and 30 and 20 and 34 and 52
same,"Clinical Score, Day of Study 8","[3]; individual animal, score 0-60, day 8 (start of dosing)",0 (5×) and 15 and 10 (4×)
same,"Clinical Score, Day of Study 11","[3]; individual animal, score 0-60, day 11",12 (2×) and 34 and 28 and 4 and 15 and 43 and 11 and 10 and 27
same,"Clinical Score, Day of Study 12","[3]; individual animal, score 0-60, day 12",32 and 50 (2×) and 45 and 27 and 35 and 26 and 20 and 34 and 52
same,"Clinical Score, Day of Study 13","[3]; individual animal, score 0-60, day 13",32 and 50 and 45 (2×) and 21 and 35 and 30 and 15 and 34 and 48
same,"Clinical Score, Day of Study 16","[3]; individual animal, score 0-60, day 16 (Jul. 1, 2011)",32 and 49 and 21 and 48 and 25 and 45 and 15 and 10 and 24 and 46
same,"Clinical Score, Day of Study 19","[3]; individual animal, score 0-60, day 19",32 and 48 and 34 and 25 and 5 and 45 and 20 and 10 and 26 and 37
same,"Clinical Score, Day of Study 22","[3]; individual animal, score 0-60, day 22 (endpoint)",32 and 41 and 34 and 16 (2×) and 40 and 19 and 10 and 23 and 26
same,"Day (of Max Clin Score), Mean","[3]; listed as 'Mean', n=10, day of study",12.00
same,Mean Maximum Clinical Score,"[3]; scored from 0 to 60 (15/limb), sum of 4 limbs, vehicle 45.4",39.6^ns
same,Score From H & E: Cartilage Damage,[4],1 (3×) and 2 (2×)
same,Score From H & E: Bone Resorption,[5],1 and 3 (3×)
same,Score From H & E: Periosteal/Exostotic Changes,[5],4 (2×) and 3 (2×)
same,Mean Body Weigh at Nadir,[6],−5.7%
same,Score From H & E: Bone Resorption,[7],0
same,Score From H & E: Cartilage Damage,[7],0
same,Score From H & E: Pannus,[7],2 (3×) and 0 (5×)
same,Score From H & E: Periosteal/Exostotic Changes,[7],0
